Reference: patent publication US20220167618A1, “PESTICIDALLY ACTIVE AZOLE-AMIDE COMPOUNDS” (SYNGENTA CROP PROTECTION AG, priority 2019, published 2022)

How the values were obtained:
Type in all cases: in vivo
[1] = system: Chilo suppressalis (Striped Rice Stemborer); test: Example B4: Chilo suppressalis (striped rice stemborer), artificial diet; details: 144 h, application rate 200 ppm, L2 larvae, 6 days after infestation, read-out: control in at least one of the three categories (mortality, anti-feedant or growth inhibition)
Procedure, shortened: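 Artificial diet was treated with aqueous dilutions made from 10'000 ppm DMSO stocks, dried, then infested with L2 larvae at 6–8 per well. Mortality, antifeedant effect and growth inhibition were assessed against untreated samples 6 days after infestation.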

[2] = system: Spodoptera littoralis (Egyptian Cotton Leaf Worm); test: Example B10: Spodoptera littoralis (Egyptian cotton leaf worm), uptake via lettuce roots from agar; details: 144 h, test rate 12.5 ppm, eggs, 6 days after infestation, read-out: control in at least one of the three categories (mortality, anti-feedant, or growth inhibition)
Source text: Example B10: Spodoptera Littoralis (Egyptian Cotton Leaf Worm)
Test compounds were applied by pipette from 10′000 ppm DMSO stock solutions into 24-well plates and mixed with agar. Lettuce seeds were placed onto the agar and the multi well plate was closed by another plate which contained also agar. After 7 days the compound was absorbed by the roots and the lettuce grew into the lid plate. The lettuce leaves were then cut off into the lid plate. Spodoptera eggs were pipetted through a plastic stencil onto a humid gel blotting paper and the lid plate was closed with it. The samples were assessed for mortality, anti-feedant effect and growth inhibition in comparison to untreated samples 6 days after infestation.

[3] = system: Diabrotica balteata (Corn Root Worm); test: Example B1: Diabrotica balteata (corn root worm), sprayed maize sprouts; details: 96 h, application rate 200 ppm, L2 larvae, 4 days after infestation, read-out: control in at least one of the two categories (mortality or growth inhibition)
Procedure: Example B1: Diabrotica balteata (Corn Root Worm)
Maize sprouts placed onto an agar layer in 24-well microtiter plates were treated with aqueous test solutions prepared from 10′000 ppm DMSO stock solutions by spraying. After drying, the plates were infested with L2 larvae (6 to 10 per well). The samples were assessed for mortality and growth inhibition in comparison to untreated samples 4 days after infestation.

[4] = system: Spodoptera littoralis (Egyptian Cotton Leaf Worm); test: Example B9: Spodoptera littoralis (Egyptian cotton leaf worm), sprayed cotton leaf discs; details: foliar, 72 h, application rate 200 ppm, L1 larvae, 3 days after infestation, read-out: control in at least one of the three categories (mortality, anto-feedant or growth inhibition)
[5] = system: Plutella xylostella (Diamond Back Moth); test: Example B5: Plutella xylostella (diamond back moth), artificial diet, 24-well; details: 192 h, application rate 200 ppm, eggs, 8 days after infestation, read-out: control in at least one of the two categories (mortality or growth inhibition)
Procedure: Example B5: Plutella xylostella (Diamond Back Moth)
24-well microtiter plates with artificial diet were treated with aqueous test solutions prepared from 10′000 ppm DMSO stock solutions by pipetting. After drying, Plutella eggs were pipetted through a plastic stencil onto a gel blotting paper and the plate was closed with it. The samples were assessed for mortality and growth inhibition in comparison to untreated samples 8 days after infestation.

[6] = system: Myzus persicae (Green Peach Aphid); test: Example B8: Myzus persicae (green peach aphid), intrinsic activity; details: 120 h, test rate 12 ppm, 5 days after infestation
Source text: Example B8: Myzus persicae (Green Peach Aphid): Intrinsic Activity
Test compounds prepared from 10′000 ppm DMSO stock solutions were applied by pipette into 24-well microtiter plates and mixed with sucrose solution. The plates were closed with a stretched Parafilm. A plastic stencil with 24 holes was placed onto the plate and infested pea seedlings were placed directly on the Parafilm. The infested plate was closed with a gel blotting paper and another plastic stencil and then turned upside down. The samples were assessed for mortality 5 days after infestation.

[7] = system: Myzus persicae (Green Peach Aphid); test: Example B12: Myzus persicae (green peach aphid), 96-well sucrose solution; details: 120 h, application rate 50 ppm, 5 days after infestation
Source text: Example B12: Myzus persicae (Green Peach Aphid)
Test compounds prepared from 10′000 ppm DMSO stock solutions were applied by a liquid handling robot into 96-well microtiter plates and mixed with a sucrose solution. Parafilm was stretched over the 96-well microtiter plate and a plastic stencil with 96 holes was placed onto the plate. Aphids were sieved into the wells directly onto the Parafilm. The infested plates were closed with a gel blotting card and a second plastic stencil and then turned upside down. The samples were assessed for mortality 5 days after infestation.

[8] = system: Plutella xylostella (Diamondback Moth); test: Example B13: Plutella xylostella (diamondback moth), artificial diet, 96-well; details: 216 h, application rate 500 ppm, eggs/L1 larvae, 9 days after infestation
Procedure: Example B13: Plutella xylostella (Diamondback Moth)
96-well microtiter plates containing artificial diet were treated with aqueous test solutions, prepared from 10′000 ppm DMSO stock solutions, by a liquid handling robot. After drying, eggs (˜30 per well) were infested onto a netted lid which was suspended above the diet. The eggs hatch and L1 larvae move down to the diet. The samples were assessed for mortality 9 days after infestation.

CC(NC(=O)c1cc(C(F)(F)F)cc(C2(C#N)CC2)c1)c1nc(Br)nn1-c1ccc(C#N)cn1 (centres unmarked) [Compound P1, N-[1-[5-bromo-2-(5-cyano-2-pyridyl)-1,2,4-triazol-3-yl]ethyl]-3-(1-cyanocyclopropyl)-5-(trifluoromethyl)benzamide]
≥ 80%: percent control (mortality, anti-feedant or growth inhibition) at 200 ppm [1] | percent control (mortality, anti-feedant or growth inhibition) at 12.5 ppm [2] | percent control (mortality or growth inhibition) at 200 ppm [3] | percent control (mortality, anti-feedant or growth inhibition) at 200 ppm [4] | percent control (mortality or growth inhibition) at 200 ppm [5]

CC(NC(=O)c1cc(C(F)(F)F)nc(C2(C#N)CC2)c1)c1nc(Br)nn1-c1ncc(OCC(F)F)cn1 (centres unmarked) [Compound P4, N-[1-[5-bromo-2-[5-(2,2-difluoroethoxy)pyrimidin-2-yl]-1,2,4-triazol-3-yl]ethyl]-2-(1-cyanocyclopropyl)-6-(trifluoromethyl)pyridine-4-carboxamide]
≥ 80%: percent control (mortality, anti-feedant or growth inhibition) at 200 ppm [1] | percent control (mortality or growth inhibition) at 200 ppm [3] | percent control (mortality, anti-feedant or growth inhibition) at 200 ppm [4] | mortality at 12 ppm [6] | percent control (mortality or growth inhibition) at 200 ppm [5]

CC(NC(=O)c1cc(C2CC2)nc(C(F)(F)F)c1)c1nc(Br)nn1-c1ncc(OCC(F)F)cn1 (centres unmarked) [Compound P14, N-[1-[5-bromo-2-[5-(2,2-difluoroethoxy)pyrimidin-2-yl]-1,2,4-triazol-3-yl]ethyl]-2-cyclopropyl-6-(trifluoromethyl)pyridine-4-carboxamide]
≥ 80%: percent control (mortality, anti-feedant or growth inhibition) at 200 ppm [1] | percent control (mortality or growth inhibition) at 200 ppm [3] | mortality at 50 ppm [7] | percent control (mortality, anti-feedant or growth inhibition) at 200 ppm [4] | percent control (mortality or growth inhibition) at 200 ppm [5] | mortality at 500 ppm [8]

CC(NC(=O)c1cc(C2CC2)cc(C(F)(F)F)c1)c1nc(Br)nn1-c1ncc(OC(F)F)cn1 (centres unmarked) [Compound P26, N-[1-[5-bromo-2-[5-(difluoromethoxy)pyrimidin-2-yl]-1,2,4-triazol-3-yl]ethyl]-3-cyclopropyl-5-(trifluoromethyl)benzamide]
≥ 80%: percent control (mortality, anti-feedant or growth inhibition) at 200 ppm [1] | percent control (mortality or growth inhibition) at 200 ppm [3] | mortality at 50 ppm [7] | percent control (mortality, anti-feedant or growth inhibition) at 200 ppm [4] | percent control (mortality or growth inhibition) at 200 ppm [5] | mortality at 500 ppm [8]

CC(NC(=O)c1cc(C(F)(F)F)cc(C(C)(C)C#N)c1)c1nc(Br)nn1-c1ncc(OC(F)F)cn1 (centres unmarked) [Compound P35, N-[1-[5-bromo-2-[5-(difluoromethoxy)pyrimidin-2-yl]-1,2,4-triazol-3-yl]ethyl]-3-(1-cyano-1-methyl-ethyl)-5-(trifluoromethyl)benzamide]
≥ 80%: percent control (mortality, anti-feedant or growth inhibition) at 200 ppm [1] | percent control (mortality, anti-feedant or growth inhibition) at 12.5 ppm [2] | percent control (mortality or growth inhibition) at 200 ppm [3] | percent control (mortality, anti-feedant or growth inhibition) at 200 ppm [4] | mortality at 12 ppm [6] | percent control (mortality or growth inhibition) at 200 ppm [5] | mortality at 500 ppm [8]
